From patent US20170049739A1, “PROSTACYCLIN COMPOUNDS, COMPOSITIONS AND METHODS OF USE THEREOF” (INSMED INCORPORATED, priority 2013, published 2017)
“Also recorded” adds a separate entry of the source.

Assays:
esterase = experiment: Esterase mediated conversion of treprostinil compounds to treprostinil; assay type: in vitro ADME; conditions: 37° C., up to 1 hr
Procedure: A set of studies was conducted to determine the conversion kinetics to treprostinil of linear treprostinil compounds versus various branched treprostinil compounds. 0.4 mM of linear C8-TR or branched treprostinil compounds 2-dimethyl-1-propanyl-TR, 3,3-dimethyl-1-butanyl-TR, 2-ethyl-1-butanyl-TR, 5-nonanyl-TR, or 3-pentanyl-TR (see below for structures) were incubated with 0.2 U esterase at 37° C. for 1 hour, and the conversion (% of total) was calculated at 0.25, 0.5, 0.75, or 1 hour incubation time. • C8-TR (i.e., the compound of Formula (A) wherein R2=
The conversion is relative to the C8-TR compound and conversion was measured at 1 hr. post esterase incubation, • C8-TR (i.e., the compound of Formula (A) wherein R2=
Conversion was measured at 1 hr. post esterase incubation. • 4C7-TR (i.e., the compound of Formula (A) wherein R2=

EP2 prostanoid receptor = molecular target: T1, EP2 prostanoid receptor (Homo sapiens, UniProt P43116); experiment: GloSensor cAMP assay in CHO-K1 cells co-transfected with the EP2 receptor; assay type: cell-based
T1 construct: host or cells: CHO-K1 cells, transiently co-transfected with pGloSensor-22F cAMP plasmid and pGEM-3Zf(+)
From the text: cAMP is a second messenger involved in signal transduction of G-protein coupled receptors (GPCRs) acting through Ga-s and Ga-i proteins. Because the treprostinil receptor is a GPCR, the assay provides an indication of whether the respective prostacyclin compound (or metabolite thereof) binds its receptor and activates the GPCR cell signaling cascade. The GloSensorTM assay harnesses a genetically modified form of firefly luciferase into which a cAMP-binding protein moiety has been inserted. Upon binding of cAMP, a conformational change is induced leading to increased light output. The EP2 prostanoid receptor was co-transfected with the GloSensorTM plasmid (Promega) into CHG-K1 cells as follows. CHO-K1 cells were harvested when the monoloayer was at 50-90% confluence. First, cells were washed with 5 mL PBS. […] The media was aspirated, and the cell pellet was resuspended in 10 mL of growth media. Cell number was determined using a hemacytometer. Each well of a culture treated 96 […] bottom plate (Costar, Cat #: 3917) was seeded with 1×10^4 cells per 100 μL antibiotic-free growth media. […] For small scale transfections of up to 20 wells, the pGLoSensor-22F cAMP plasmid (Promega, Cat #: E2301) (2 μg): (EP2) (10 ng) (Origene, Cat #: SC126558) : pGEM-3Zf(+) (10 ng) (Promega, Cat #: P2271) ratio was diluted to a final concentration of 12.6 ng/μL (total plasmid) in Opti-MEM I reduced-serum medium (Life Technologies, Cat #: 1985062). Next, 6 μL of FuGENE HD transfection reagent (Promega, Cat #: E2311) was added to 160 μL of diluted plasmid and mixed carefully by gentle pipetting. The complex was incubated at room temperature for 0 to 10 minutes, and then 8 μL of the complex was added per well of a 96 well white assay plate (Costar, Cat #: 3917) and gently mixed without disturbing the cell monolayer. […] Following incubation, cells were treated and analyzed. For larger scale transfections, the aforementioned steps were scaled up accordingly, and cells were frozen following the last incubation. In order to prepare frozen transfected CHO-K1 cells, the media was aspirated from culture flasks and cells were rinsed with 5 mL PBS. […] Cell number was determined using a hemacytometer. The media was aspirated, and the cell pellet was resuspended in freezing media (Millipore, cat #: S-002-5F) at 2.5×10^6 cells/vial. Transfected cells were incubated overnight at -80° C. before transfer to liquid nitrogen for long term storage. […] In preparation for cAMP measurement, the cells were equilibrated with the GloSensor cAMP reagent prior to treatment. For equilibration, the medium was carefully removed from the individual well. Next, 100 μL of equilibration medium (6% v/v of Glosensor Reagent stock solution (Promega, Cat #: E291), 10% FBS (Hyclone, Cat #: SH30071.03) and 88% CO2 independent medium (Life Technologies, Cat #: 18045088)) was added per well of the 96-well plate, and added to the side of each well. The plate was then incubated for 2 hours at room temperature. A first pre-read measurement was taken using a microplate reader (MicroLumat Plus). Plates were incubated for an additional 10 minutes at room temperature, followed by a second pre-read measurement. […] Following treatment, each plate was read every 5 minutes for the duration of the assay using a microplate reader (MicroLumat Plus). In order to determine the fold change in cAMP relative to the control, the transfection efficiency was first determined by dividing the second pre-read measurement by the average of the corresponding pre-read measurements. Next, the normalized relative light units (RLUs) of the samples were determined by dividing the plate read measurement by the transfection efficiency. The fold change in cAMP relative to the control was then determined by dividing the normalized RLU of the samples by the normalized RLU of the control. […] Results from the three highest concentrations are provided at FIG. 3A (10 μM), FIG. 3B (1 μM) and FIG. 3C (0.1 μM). […]

CHO-K1 cells = experiment: CHO-K1 cell proliferation assay; conditions: unformulated alkyl esters, 48 hour incubation; for Effect on cell proliferation: concentration with detectable inhibition: 0.195 μM-25 μM
Procedure: CHG-K1 cells were harvested when the cell monolayer was 50-90% confluent (use passage 4-11). Media was aspirated out of the flask, and cells were rinsed with 2 mL of F12 media. Next, 1 mL of pre-warmed (37° C.) 0.25%o trypsin-EDTA (Life Technologies, Cat#: 25300054) was added, and cells were dislodged from the flask by tapping it on the side. Complete growth media (F12 (Life Technologies, Cat #: 31765092) +10%FBS (Hyclone, Cat #: SH30071.03)+1× Pen-Strep (Life Technologies, cat #15140-122) was then added at a volume of 10 mL. Cells were eentrifuged at 250×g for 5 minutes at room temperature, and the media was aspirated. The cell pellet was resuspended in 10 ml. complete growth media. Cell number was determined using a hemacytometer. Ceils were then seeded at 2000 cells per well of a 96-well plate in 100 μL of complete growth media. The plate was incubated overnight at 37° C. and 5% CO2 in a water-jacketed incubator.
The next day, 80 μL of fresh complete media was added to each well, and CHO—K1 cells were challenged with treprostinil compound and composition treatments. The working solutions were prepared at 10× concentration, and following 2 fold serial dilutions, 20 μL aliquots were added per well to arrive at a final 1× concentration. Following a 48 hour incubation at 37° C. and 5% CO2 in a water-jacketed incubator, the inhibitory effect on cell proliferation was determined. Plates were analyzed using 20 μL of Presto Blue reagent (Life Technologies, cat #: A13262) per well. The reagent was mixed, and plates were incubated for 1 hour at 37° C. and 5% CO2 in a water-jacketed incubator. Plates were read using either a CytoFluor Series 4000 (PerSeptive BioSystems) or Synergy Neo microplate reader (BioTek) with emission λ: 590 nm and excitation λ: 560 nm.
Following a 48 hour incubation period, the inhibitory effect of the treprostinil derivative compositions on cell proliferation was determined.
CHO—K1 cells were challenged with treprostinil alkyl esters, i.e., TR compounds of Formula (A), having the following R2 groups: • C2, C3, C4, C5, C6, C8, C10 or C12 straight chain alkyl, at dosages ranging from 0.098 μM to 25 μM, Following a 48 hour incubation period, the inhibitory effect on cell proliferation was determined.
Following a 72 hour incubation period, the inhibitory effect on cell proliferation was determined. Following a 48 hour incubation period, the inhibitory effect on cell proliferation was determined.
Similarly, CHG-K1 cells were challenged with the treprostinil compositions T612 (R2═C2), T613 (R2═C8) at concentrations ranging from 1.41 μM to 180 μM.

NR8383 cells = experiment: NR8383 cell proliferation assay; assay type: cell-based, rat; conditions: unformulated alkyl esters, 72 hour incubation; for Effect on cell proliferation: 0.195 μM-25 μM
Procedure: Rat alveolar NR8383 cells were harvested when the monolayer was 50-90% confluent (use passage 5-11). Because the NR8383 cells include both adherent and non-adherent cells, media was transferred to a 50 mL Falcon tube. To obtain the cells remaining in the flask, 2 mL of plain media was added, and the remaining cells were scraped out of the 75 cm^2 flask with a cell scraper and added to the 50 mL tube. […] SH30071.03) […] Technologies, cat #: 15410-122)). Cell number was determined using a hemacytometer. […] Measurements and calculations were made as described above for the CHO-K1 cells.

[1] = Particle size characterization of treprostinil compositions (QELS); assay type: physicochemical; conditions: particles of compositions comprising the alkyl ester (FIG. 2)
Procedure: All particle size measurements were performed using a Wyatt Technology Mobius™ Zeta Potential/ Particle Sizing Instrument in Quasi-elastic light scattering (QELS) mode. Composition aiiquots were diluted 10-fold in pre-filtered (0.02 μm pore filter) ultrapure of deionized H2O. Light scattering data was collected and converted into particle size and size distribution using Dynamics® v. […] Reported average particle size diameter is based on the cumulants model, which mathematically fits particle diffusion constants (determined by the raw scattering intensities of particles in a suspension) to obtain the particle size mean and a distribution of particle sizes around the mean diameter.
Particle uniformity was determined using the software-calculated polydispersity (% PD). Polydispersity is defined as the standard deviation of the particle size distribution from the mean particle size value. % PD normalizes the polydispersity to the mean diameter by dividing by the mean size and multiplylng by 100. These parameters indicate whether a particle suspension has one or more size populations of particles (monomodal versus multimodal). […]
Dynamics® polydispersity parameter represents a monodisperse population of particles if % PD≦15. A calculated % PD≧57% represents a polydisperse population of particles.

T1 sequence (P43116 whole entry): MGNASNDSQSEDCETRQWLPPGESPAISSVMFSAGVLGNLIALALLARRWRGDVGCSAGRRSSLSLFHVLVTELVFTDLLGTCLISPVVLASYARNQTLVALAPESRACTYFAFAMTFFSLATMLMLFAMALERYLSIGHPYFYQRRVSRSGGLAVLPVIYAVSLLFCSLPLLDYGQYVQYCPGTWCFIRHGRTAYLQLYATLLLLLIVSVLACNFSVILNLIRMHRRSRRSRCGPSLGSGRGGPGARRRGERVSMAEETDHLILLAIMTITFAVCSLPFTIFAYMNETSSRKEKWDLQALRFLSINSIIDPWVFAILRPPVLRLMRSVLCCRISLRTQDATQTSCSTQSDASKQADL

Molecule | esterase mediated conversion rate compared with other compounds (esterase) | Effect on cell proliferation: concentration with detectable inhibition (CHO-K1 cells) | Effect on cell proliferation (NR8383 cells) | also measured
CCCCC[C@H](O)CC[C@@H]1[C@H]2Cc3cccc(OCC(=O)OC(CCC)CCC)c3C[C@H]2C[C@H]1O [4C7-TR] | slower conversion rate than the linear compound C8-TR |  |  | 
CCCCCC(O)CCC1C(O)CC2Cc3c(cccc3OCC(=O)OC(CCC)CCCC)CC21 (stereo not shown) [4C8-TR] | slower conversion rate than the linear compound C8-TR; also recorded: slower conversion rate than the symmetrical compounds |  |  | 
CCCCC[C@H](O)CC[C@@H]1[C@H]2Cc3cccc(OCC(=O)OC(CCCC)CCCC)c3C[C@H]2C[C@H]1O [5C9-TR, 5-nonanyl treprostinil] | slower conversion rate than the linear compound C8-TR |  |  | change of potency with incubation time / release profile (EP2 prostanoid receptor; dose response curves at 0.5 to 8 hr incubation): increases with incubation time; also recorded: delayed release profile; ranking of activity of the treprostinil compounds (EP2 prostanoid receptor; unformulated compounds, 10 μM and 5 μM, FIG. 21): C12-TR>C14-TR>5-nonanyl-TR>C16-TR; esterase mediated conversion rate compared with other compounds (esterase; listed as 5-nonanyl-TR): slower conversion rate than linear C8-TR
CCCCCC[C@@H](C)OC(=O)COc1cccc2c1C[C@H]1C[C@@H](O)[C@H](CC[C@@H](O)CCCCC)[C@H]1C2 [(R)-2C8-TR] | no significant difference between the conversion rates of R and S isomers |  |  | 
CCCCCC[C@H](C)OC(=O)COc1cccc2c1C[C@H]1C[C@@H](O)[C@H](CC[C@@H](O)CCCCC)[C@H]1C2 [(S)-2C8-TR] | no significant difference between the conversion rates of R and S isomers |  |  | 
CCCCC[C@H](O)CC[C@@H]1[C@H]2Cc3cccc(OCC(=O)OCC)c3C[C@H]2C[C@H]1O [C2-TR, treprostinil ethyl ester] |  | No detectable cell inhibition | No detectable cell inhibition | 
CCCCC[C@H](O)CC[C@@H]1[C@H]2Cc3cccc(OCC(=O)OCCC)c3C[C@H]2C[C@H]1O [C3-TR] |  | No detectable cell inhibition | No detectable cell inhibition | 
CCCCC[C@H](O)CC[C@@H]1[C@H]2Cc3cccc(OCC(=O)OCCCC)c3C[C@H]2C[C@H]1O [C4-TR] |  | No detectable cell inhibition | No detectable cell inhibition | 
CCCCCCOC(=O)COc1cccc2c1C[C@H]1C[C@@H](O)[C@H](CC[C@@H](O)CCCCC)[C@H]1C2 [C6-TR] |  | No detectable cell inhibition | No detectable cell inhibition | 
CCCCCCCCOC(=O)COc1cccc2c1C[C@H]1C[C@@H](O)[C@H](CC[C@@H](O)CCCCC)[C@H]1C2 [C8-TR, treprostinil octyl ester] |  | 25 µM |  | inhibition of cell proliferation at the highest concentration (CHO-K1 cells): showed inhibition of cell proliferation; inhibition of cell proliferation at the highest concentration (NR8383 cells): showed some inhibition of cell proliferation
treprostinil decyl ester [C10-TR] |  |  |  | duration of cAMP levels (EP2 prostanoid receptor; 5 μM, FIG. 4 and FIG. 5): sustained significantly longer than free treprostinil; cAMP levels compared with free treprostinil (EP2 prostanoid receptor; 10 μM, FIG. 3A): equivalent to free treprostinil; time for which cAMP level was sustained (EP2 prostanoid receptor; 10 μM, FIG. 3A): at least 6 hours; cAMP response compared with free treprostinil (EP2 prostanoid receptor; compositions, 5 μM, FIG. 4): greater than or equivalent to the response induced by free treprostinil; cAMP response levels of unformulated compounds (EP2 prostanoid receptor; unformulated alkyl esters, 5 μM, FIG. 5): equivalent to free treprostinil; polydispersity (% PD) [1]: around 15 % PD
